The target of assay [1] is T1, human BRD4 bromodomain II (Homo sapiens, UniProt O60885).
T1 construct: human BRD4 bromodomain II [based on Genbank NM_058243, residues 349-460]; host or cells: E. coli
The experiment in a line: Bromodomain binding assay (AlphaScreen), BRD4 BDII. An outline of the steps:
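Read-out is AlphaScreen signal (ex 680 nm, em 520-620 nm) from streptavidin donor beads on a biotinylated acetylated histone H4 (aa 1-21) peptide and nickel acceptor beads on the His6-tagged bromodomain. IC50 values come from curve fits of percentage peptide binding against compound concentration.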

In assay [2] the test system is human SKM-1 acute myeloid leukemia cells. Nature of the assay: SKM-1 antiproliferation cell-based assay (ATPlite). To be noted: Homo sapiens. An outline of the steps:
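Log-phase cells in RPMI 1640/15% FBS were seeded at 34722 cells/mL and exposed for 4 days to nine-concentration DMSO serial dilutions in triplicate. Viability was read as ATP luminescence (ATPlite 1step), and IC50 values came from variable-slope non-linear regression.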

The mark [3] stands for this setting: AlphaScreen assay, Table C2, read-out: BRD4 BDII IC50.
The mark [4] stands for this setting: SKM-1, 96 h, SKM-1 antiproliferation assay, 4 days, Table C2.
[5] abbreviates: BRD4 BDII AlphaScreen assay, read-out: BRD4 BD2 IC50.
[6] abbreviates: SKM-1, SKM-1 antiproliferation assay.

Structures are written as SMILES. pIC50: −log10 of the molar value. Where two headings read alike, the source gives them in different places. Some results are limits rather than exact numbers.

For orientation: pIC50 means the IC50 on a negative log10 scale, so that one unit is a factor of ten. One may read the GI50 as the concentration at which growth is held to half of that of the control. High values mean lower sensitivity of the cells, low ones greater sensitivity of the cells. `Cn1ccn(-c2ccc(-c3cc(F)cc(-c4cncc(N5C[C@@H](N)[C@H](O)C5)c4)c3O)cc2Cl)c1=O` [Example 491, 1-(3′-(5-((3R,4R)-3-amino-4-hydroxypyrrolidin-1-yl)pyridin-3-yl)-3-chloro-5′-fluoro-2′-hydroxy-[1,1′-biphenyl]-4-yl)-3-methyl-1H-imidazol-2(3H)-one]: the pIC50 in assay [1] (setting [3]) was 9.00 to 11.00. In assay [2] (setting [4]), this compound displayed a GI50 of 30 to 300 nM.

As for `CNC(=O)c1cc(-c2ccnc(N3CCNCC3)c2)c(O)c(-c2ccc(NC(C)=O)c(F)c2)c1` [Example 299, 4′-Acetamido-3′-fluoro-6-hydroxy-N-methyl-5-(2-(piperazin-1-yl)pyridin-4-yl)-[1,1′-biphenyl]-3-carboxamide], the pIC50 in assay [1] (setting [3]) is 7.00 to 8.00. Besides, the GI50 in assay [2] (setting [4]) is no less than 3000 nM.

With `Cn1ccn(-c2ccc(-c3cc(F)cc(-c4cnc(OC(F)F)c(N5CCN(C(C)(C)C)CC5)c4)c3O)cc2Cl)c1=O` [Example 823, 1-(3′-(5-(4-(tert-butyl)piperazin-1-yl)-6-(difluoromethoxy)pyridin-3-yl)-3-chloro-5′-fluoro-2′-hydroxy-[1,1′-biphenyl]-4-yl)-3-methyl-1H-imidazol-2(3H)-one], the negative-log IC50 (pIC50) in assay [1] (setting [3]) was 8.00 to 9.00. This compound also gave a GI50 in assay [2] (setting [4]) of 0.3 to 30 nM.

For the compound `CC(=O)NC1(C)C2CCC1CN(c1cc(-c3cc(F)cc(-c4ccc(-n5ccn(C)c5=O)c(Cl)c4)c3O)ccn1)C2` (stereo not shown) [Example 780, N-(3-(4-(3′-chloro-5-fluoro-2-hydroxy-4′-(3-methyl-2-oxo-2,3-dihydro-1H-imidazol-1-yl)-[1,1′-biphenyl]-3-yl)pyridin-2-yl)-8-methyl-3-azabicyclo[3.2.1]octan-8-yl)acetamide], in assay [1] (setting [3]), the pIC50 was 8.00 to 9.00. In assay [2] (setting [4]), this compound displayed a GI50 of 30 to 300 nM.

Turning to `[2H]C([2H])([2H])n1ccn(-c2ccc(-c3cc(F)cc(-c4ccnc(N5CC[C@H](NC)C5)c4)c3O)cc2Cl)c1=O` [Example 466, (S)-1-(3-chloro-5′-fluoro-2′-hydroxy-3′-(2-(3-(methylamino)pyrrolidin-1-yl)pyridin-4-yl)-[1,1′-biphenyl]-4-yl)-3-(deuteromethyl)-1H-imidazol-2(3H)-one], the pIC50 in assay [1] (setting [3]) is 9.00 to 11.00. This compound had a GI50 in assay [2] (setting [4]) of 0.3 to 30 nM.

In the case of `CC(=O)Nc1ccc(-c2cccc(-c3ccc(N4CCN(C)C4=O)c(Cl)c3)c2O)cc1N1CCNCC1` [Example 330, N-(3″-chloro-2′-hydroxy-4″-(3-methyl-2-oxoimidazolidin-1-yl)-3-(piperazin-1-yl)-[1,1′:3′,1″-terphenyl]-4-yl)acetamide], the pIC50 in assay [1] (setting [3]) is 8.00 to 9.00. In assay [2] (setting [4]), the GI50 lay in the range of 30 to 300 nM.

Turning to `CC(=O)Nc1ccc(-c2cc(F)cc(-c3cccc(N4CCN(C(C)(C)C)CC4)c3)c2O)cc1Cl` [Example 919, N-(3″-(4-(tert-butyl)piperazin-1-yl)-3-chloro-5′-fluoro-2′-hydroxy-[1,1′:3′,1″-terphenyl]-4-yl)acetamide], the pIC50 in assay [1] (setting [5]) was 8.00 to 9.00. In assay [2] (setting [6]), this compound displayed a GI50 of 300 to 3000 nM.

For `CC(=O)Nc1ccc(-c2cccc(-c3ccnc(N4CCN[C@H](C)C4)c3)c2O)cc1Cl` [Example 256, (R)-N-(3-chloro-2′-hydroxy-3′-(2-(3-methylpiperazin-1-yl)pyridin-4-yl)-[1,1′-biphenyl]-4-yl)acetamide], the pIC50 in assay [1] (setting [3]) is 8.00 to 9.00. The GI50 in assay [2] (setting [4]) is 300 to 3000 nM.

Regarding `CC(=O)NC1(C)CN(c2cc(-c3cc(F)cc(-c4ccc(-n5ccn(C)c5=O)c(Cl)c4)c3O)ccn2)C1` [Example 768, N-(1-(4-(3′-chloro-5-fluoro-2-hydroxy-4′-(3-methyl-2-oxo-2,3-dihydro-1H-imidazol-1-yl)-[1,1′-biphenyl]-3-yl)pyridin-2-yl)-3-methylazetidin-3-yl)acetamide], the pIC50 in assay [1] (setting [3]) was 8.00 to 9.00. In assay [2] (setting [4]), this compound showed a GI50 of 30 to 300 nM.

For the compound `Cc1ncc(-c2cc(F)cc(-c3ccc(-n4ccn(C)c4=O)c(Cl)c3)c2O)cc1N1CC2(CC2)[C@](C)(O)C1` [Example 873], in assay [1] (setting [5]), the pIC50 was 9.00 to 11.00. Moreover, the GI50 in assay [2] (setting [6]) lay within 0.3 to 30 nM.

With `Cn1ccn(-c2ccc(-c3cc(F)cc(-c4cncc(N5CCC[C@H](N)C5)c4)c3O)cc2Cl)c1=O` [Example 461, (S)-1-(3′-(5-(3-aminopiperidin-1-yl)pyridin-3-yl)-3-chloro-5′-fluoro-2′-hydroxy-[1,1′-biphenyl]-4-yl)-3-methyl-1,3-dihydro-2H-imidazol-2-one], the pIC50 in assay [1] (setting [3]) is 9.00 to 11.00. In assay [2] (setting [4]), the GI50 fell in the range of 0.3 to 30 nM.

In the case of `COc1ncc(-c2cc(F)cc(-c3ccc(-n4ccn(C)c4=O)c(Cl)c3)c2O)cc1N1CCN(C(C)(C)C2CC2)CC1` [Example 847, 1-(3-chloro-3′-(5-(4-(2-cyclopropylpropan-2-yl)piperazin-1-yl)-6-methoxypyridin-3-yl)-5′-fluoro-2′-hydroxy-[1,1′-biphenyl]-4-yl)-3-methyl-1H-imidazol-2(3H)-one], the pIC50 in assay [1] (setting [3]) is 8.00 to 9.00. The compound further returned a GI50 in assay [2] (setting [4]) of 0.3 to 30 nM.

Take `CN1CCN(c2ccc(-c3cc(F)cc(-c4ccnc(N5CCNCC5)c4)c3N)cc2Cl)C1=O` [Example 406, 1-(2′-amino-3-chloro-5′-fluoro-3′-(2-(piperazin-1-yl)pyridin-4-yl)-[1,1′-biphenyl]-4-yl)-3-methylimidazolidin-2-one]: in assay [1] (setting [3]), the pIC50 is 7.00 to 8.00. The same compound gave a GI50 in assay [2] (setting [4]) of 30 to 300 nM.

Regarding `CN[C@H]1CCCN(c2cc(-c3cc(F)cc(-c4ccc(-n5ccn(C)c5=O)c(Cl)c4)c3O)ccn2)C1` [Example 440, (S)-1-(3-chloro-5′-fluoro-2′-hydroxy-3′-(2-(3-(methylamino)piperidin-1-yl)pyridin-4-yl)-[1,1′-biphenyl]-4-yl)-3-methyl-1H-imidazol-2(3H)-one], in assay [1] (setting [3]), the pIC50 is 9.00 to 11.00. Moreover, the GI50 in assay [2] (setting [4]) fell in the range of 30 to 300 nM.

For the compound `CN1CCN(c2ccc(-c3cc(F)cc(-c4cc(C5=CCNCC5)cn(C)c4=O)c3O)cc2Cl)C1=O` [Example 401, 5-(3′-chloro-5-fluoro-2-hydroxy-4′-(3-methyl-2-oxoimidazolidin-1-yl)-[1,1′-biphenyl]-3-yl)-1-methyl-1′,2′,3′,6′-tetrahydro-[3,4′-bipyridin]-6(1H)-one], the pIC50 in assay [1] (setting [3]) is less than 7.00. Further, in assay [2] (setting [4]), the GI50 was 300 to 3000 nM.

For `CN1CC2(C1)CN(c1cc(-c3cc(F)cc(-c4ccc(-n5ccn(C)c5=O)c(Cl)c4)c3O)ccn1)C2` [Example 489, 1-(3-chloro-5′-fluoro-2′-hydroxy-3′-(2-(6-methyl-2,6-diazaspiro[3.3]heptan-2-yl)pyridin-4-yl)-[1,1′-biphenyl]-4-yl)-3-methyl-1H-imidazol-2(3H)-one], in assay [1] (setting [3]), the pIC50 was 8.00 to 9.00. In assay [2] (setting [4]), this compound displayed a GI50 of 0.3 to 30 nM.

Consider `CC(C)N1CCN(c2cc(-c3cc(F)cc(-c4ccc(-n5ccn(C)c5=O)c(Cl)c4)c3O)cn(C)c2=O)CC1` [Example 661, 5-(3′-chloro-5-fluoro-2-hydroxy-4′-(3-methyl-2-oxo-2,3-dihydro-1H-imidazol-1-yl)-[1,1′-biphenyl]-3-yl)-3-(4-isopropylpiperazin-1-yl)-1-methylpyridin-2(1H)-one], for which the pIC50 in assay [1] (setting [3]) is 9.00 to 11.00. In addition, the GI50 in assay [2] (setting [4]) fell in the range of 0.3 to 30 nM.

In the case of `CN1CCN(c2ccc(-c3cc(F)cc(-c4cnc(NCCO)c(N5CCNCC5)c4)c3O)cc2Cl)C1=O` [Example 405, 1-(3-chloro-5′-fluoro-2′-hydroxy-3′-(6-((2-hydroxyethyl)amino)-5-(piperazin-1-yl)pyridin-3-yl)-[1,1′-biphenyl]-4-yl)-3-methylimidazolidin-2-one], the pIC50 in assay [1] (setting [3]) was 8.00 to 9.00. The GI50 in assay [2] (setting [4]) lay within 30 to 300 nM.

For `COCCC1CN(c2cc(-c3cc(F)cc(-c4ccc(-n5ccn(C)c5=O)c(Cl)c4)c3O)ccn2)CCN1` (stereo not shown) [Example 676, 1-(3-chloro-5′-fluoro-2′-hydroxy-3′-(2-(3-(2-methoxyethyl)piperazin-1-yl)pyridin-4-yl)-[1,1′-biphenyl]-4-yl)-3-methyl-1H-imidazol-2(3H)-one], the pIC50 in assay [1] (setting [3]) was 9.00 to 11.00. The compound also came in with a GI50 in assay [2] (setting [4]) of 0.3 to 30 nM.

For the compound `CC(C)N1[C@H](C)CN(c2cccc(-c3cc(F)cc(-c4ccc(-n5ccn(C)c5=O)c(Cl)c4)c3O)c2)C[C@@H]1C` [Example 906, 1-(3-chloro-5′-fluoro-2′-hydroxy-3″-((3R,5S)-4-isopropyl-3,5-dimethylpiperazin-1-yl)-[1,1′:3′,1″-terphenyl]-4-yl)-3-methyl-1H-imidazol-2(3H)-one], the pIC50 in assay [1] (setting [5]) is 9.00 to 11.00. The compound also registered a GI50 in assay [2] (setting [6]) of 0.3 to 30 nM.

With `CC(C)CN1CCN(c2cc(-c3cc(F)cc(-c4ccc(-n5ccn(C)c5=O)c(Cl)c4)c3O)ccn2)CC1` [Example 682, 1-(3-chloro-5′-fluoro-2′-hydroxy-3′-(2-(4-isobutylpiperazin-1-yl)pyridin-4-yl)-[1,1′-biphenyl]-4-yl)-3-methyl-1H-imidazol-2(3H)-one], in assay [1] (setting [3]), the pIC50 was 9.00 to 11.00. Besides, the 50% growth inhibitory concentration (GI50) in assay [2] (setting [4]) lay in the range of 0.3 to 30 nM.

On to `Cn1ccn(-c2ccc(-c3cc(F)cc(-c4cncc(N5CC[C@@](C)(N)C5)c4)c3O)cc2Cl)c1=O` [Example 742, (R)-1-(3′-(5-(3-amino-3-methylpyrrolidin-1-yl)pyridin-3-yl)-3-chloro-5′-fluoro-2′-hydroxy-[1,1′-biphenyl]-4-yl)-3-methyl-1H-imidazol-2(3H)-one], for which, in assay [1] (setting [3]), the pIC50 was 9.00 to 11.00. This compound yielded a GI50 in assay [2] (setting [4]) of 0.3 to 30 nM.

In the case of `Cc1cc(-c2cc(F)cc(-c3ccc(-n4ccn(C)c4=O)c(Cl)c3)c2O)cc(N2CCN(C(C)(C)C)CC2)c1` [Example 828, 1-(3″-(4-(tert-butyl)piperazin-1-yl)-3-chloro-5′-fluoro-2′-hydroxy-5″-methyl-[1,1′:3′,1″-terphenyl]-4-yl)-3-methyl-1H-imidazol-2(3H)-one], the pIC50 in assay [1] (setting [3]) is 9.00 to 11.00. This compound gave a GI50 in assay [2] (setting [4]) of 0.3 to 30 nM.

These data come from patent US20250179059A1 (The Regents of the University of California, priority 2021, published 2025).
